This note sets out measurements from ChEMBL document CHEMBL1128309, “Antitumor activity of 9(R)-dihydrotaxane analogs” (1995).

Common to all, as to format: functional
One assay deals with A549. The experiment in a line: Cytotoxicity against human lung carcinoma A549 cell line.
For a further assay, the system named is B16-F10. The experiment in a line: Cytotoxicity against mouse melanoma B16F10 cell line.
In another assay the test system is HT-29. The experiment in a line: Cytotoxicity against human colon adenocarcinoma HT-29 cell line.
In the next assay the test system is P388. Put plainly: Cytotoxicity against mouse lymphocytic leukemia P388 cell line.
Assay [1] is described as follows: ED50 compared to that of taxol.

Each structure is given as a SMILES string.

As to `CC(=O)O[C@H]1C(=O)[C@@]2(C)[C@H]([C@H](OC(=O)c3ccccc3)[C@]3(O)C[C@H](OC(=O)[C@H](O)[C@@H](NC(=O)c4ccccc4)c4ccccc4)C(C)=C1C3(C)C)[C@]1(OC(C)=O)CO[C@@H]1C[C@@H]2O` [PACLITAXEL], the Cytotoxicity with A549 amounted to 4.3 ng/mL; in the assay on B16-F10, 6.3 ng/mL; with HT-29 it was 3.5 ng/mL; with P388 it was 11 ng/mL. Moreover, the Ratio in assay [1] came out at 1.

On to `C=CCO[C@H]1C[C@H]2OC[C@@]2(OC(C)=O)[C@H]2[C@H](OC(=O)c3ccccc3)[C@]3(O)C[C@H](OC(=O)[C@H](O)[C@@H](NC(=O)c4ccccc4)c4ccccc4)C(C)=C([C@@H](OC(C)=O)[C@H](O)[C@]12C)C3(C)C`, for which the Cytotoxicity in the assay with A549 amounted to 1 ng/mL; in the assay with B16-F10 it was 2.7 ng/mL; with HT-29 it was 1.2 ng/mL; in the assay on P388 it was 5.3 ng/mL. Further, the Ratio in assay [1] is 1.4.

Consider `CC(=O)O[C@@H]1C2=C(C)[C@@H](OC(=O)[C@H](O)[C@@H](NC(=O)c3ccccc3)c3ccccc3)C[C@@](O)([C@@H](OC(=O)c3ccccc3)[C@@H]3[C@]4(OC(C)=O)CO[C@@H]4C[C@@H]4OC(C)(C)O[C@@H]1[C@]43C)C2(C)C`, for which the Cytotoxicity came to 34 ng/mL with A549, 34 ng/mL in the assay on B16-F10, 29 ng/mL in the assay on HT-29 and 42 ng/mL in the assay on P388. The Ratio in assay [1] worked out at 0.76.

Turning to `CC(=O)O[C@@H]1C2=C(C)[C@@H](OC(=O)[C@H](O)[C@@H](NC(=O)c3ccccc3)c3ccccc3)C[C@@](O)([C@@H](OC(=O)c3ccccc3)[C@@H]3[C@]4(OC(C)=O)CO[C@@H]4C[C@H](O)[C@@]3(C)[C@H]1O)C2(C)C` (stereo in doubt; 2) [listing 1 of 2 here], the Cytotoxicity with A549 is 22 ng/mL; with B16-F10 it was 25 ng/mL; with HT-29 it was 9.6 ng/mL; in the assay on P388, 57 ng/mL.

Regarding `CC(=O)O[C@@H]1C2=C(C)[C@@H](OC(=O)[C@H](O)[C@@H](NC(=O)c3ccccc3)c3ccccc3)C[C@@](O)([C@@H](OC(=O)c3ccccc3)[C@@H]3[C@]4(OC(C)=O)CO[C@@H]4C[C@H](OCCO)[C@@]3(C)[C@H]1O)C2(C)C`, the Cytotoxicity was 39 ng/mL in the assay on A549, 119 ng/mL with B16-F10, 10 ng/mL with HT-29 and 170 ng/mL with P388. The Ratio in assay [1] came out at 1.77.

Regarding `CO[C@H]1C[C@H]2OC[C@@]2(OC(C)=O)[C@H]2[C@H](OC(=O)c3ccccc3)[C@]3(O)C[C@H](OC(=O)[C@H](O)[C@@H](NC(=O)c4ccccc4)c4ccccc4)C(C)=C([C@@H](OC(C)=O)[C@H](O)[C@]12C)C3(C)C`, the Cytotoxicity worked out at 1.2 ng/mL in the assay with A549, 1.5 ng/mL with B16-F10, 1.4 ng/mL with HT-29 and 3.9 ng/mL in the assay with P388. For the same compound, in assay [1], the Ratio was found to be 0.92.

`CC(=O)O[C@@H]1C2=C(C)[C@@H](OC(=O)[C@H](O)[C@@H](NC(=O)c3ccccc3)c3ccccc3)C[C@@](O)([C@@H](OC(=O)c3ccccc3)[C@@H]3[C@]4(OC(C)=O)CO[C@@H]4C[C@@H]4OC(=S)O[C@@H]1[C@]43C)C2(C)C`: the Cytotoxicity in the assay on A549 was 19 ng/mL; with B16-F10, 20 ng/mL; in the assay with HT-29, 11 ng/mL; in the assay on P388 it was 35 ng/mL. In addition, in assay [1], the Ratio is 2.78.

`CC(=O)O[C@@H]1C2=C(C)[C@@H](OC(=O)[C@H](O)[C@@H](NC(=O)c3ccccc3)c3ccccc3)C[C@@](O)([C@@H](OC(=O)c3ccccc3)[C@@H]3[C@]4(OC(C)=O)CO[C@@H]4C[C@H](OCC(O)CO)[C@@]3(C)[C@H]1O)C2(C)C` (some centres undefined): the Cytotoxicity with A549 was 626 ng/mL; in the assay on B16-F10 it was more than 1000 ng/mL; in the assay on HT-29 it was 310 ng/mL; in the assay on P388, more than 1000 ng/mL. Also, the Ratio in assay [1] came to 2.02.

In the case of `CO[C@H]1[C@H](OC(C)=O)C2=C(C)[C@@H](OC(=O)[C@H](O)[C@@H](NC(=O)OC(C)(C)C)c3ccccc3)C[C@@](O)([C@@H](OC(=O)c3ccccc3)[C@@H]3[C@]4(OC(C)=O)CO[C@@H]4C[C@H](O)[C@]31C)C2(C)C`, the Cytotoxicity is 0.1 ng/mL in the assay on A549, 0.9 ng/mL with B16-F10, 0.5 ng/mL in the assay on HT-29 and 1.3 ng/mL in the assay with P388. Further, the Ratio in assay [1] was determined as 0.51.

Turning to `CC(=O)OCCO[C@H]1C[C@H]2OC[C@@]2(OC(C)=O)[C@H]2[C@H](OC(=O)c3ccccc3)[C@]3(O)C[C@H](OC(=O)[C@H](O)[C@@H](NC(=O)c4ccccc4)c4ccccc4)C(C)=C([C@@H](OC(C)=O)[C@H](O)[C@]12C)C3(C)C`, the Cytotoxicity in the assay on A549 came to 120 ng/mL; in the assay with B16-F10 it was 43 ng/mL; in the assay with HT-29 it was 31 ng/mL; with P388, 79 ng/mL. Further, the Ratio in assay [1] was determined as 2.47.

As to `CCC1O[C@H]2C[C@H]3OC[C@@]3(OC(C)=O)[C@H]3[C@H](OC(=O)c4ccccc4)[C@]4(O)C[C@H](OC(=O)[C@H](O)[C@@H](NC(=O)c5ccccc5)c5ccccc5)C(C)=C([C@@H](OC(C)=O)[C@H](O1)[C@]23C)C4(C)C` (some centres undefined), the Cytotoxicity in the assay with A549 turned out to be 23 ng/mL; with B16-F10, 15 ng/mL; with HT-29, 16 ng/mL; in the assay on P388, 22 ng/mL.

`CC(=O)O[C@@H]1C2=C(C)[C@@H](OC(=O)[C@H](O)[C@@H](NC(=O)c3ccccc3)c3ccccc3)C[C@@](O)([C@@H](OC(=O)c3ccccc3)[C@@H]3[C@]4(OC(C)=O)CO[C@@H]4C[C@H](O)[C@@]3(C)[C@H]1O)C2(C)C` (stereo in doubt; 14a) [listing 1 of 2 here]: the Cytotoxicity with A549 worked out at 11 ng/mL; in the assay on B16-F10 it was 39 ng/mL; in the assay on HT-29 it was 1.9 ng/mL; in the assay on P388 it was 140 ng/mL.

With `CO[C@H]1[C@H](OC(C)=O)C2=C(C)[C@@H](OC(=O)[C@H](O)[C@@H](NC(=O)c3ccccc3)c3ccccc3)C[C@@](O)([C@@H](OC(=O)c3ccccc3)[C@@H]3[C@]4(OC(C)=O)CO[C@@H]4C[C@H](O)[C@]31C)C2(C)C`, the Cytotoxicity with A549 turned out to be 4.7 ng/mL; in the assay with B16-F10, 4.8 ng/mL; in the assay with HT-29, 3.1 ng/mL; in the assay with P388 it was 7.8 ng/mL. Also, the Ratio in assay [1] was determined as 1.74.

As to `CC(=O)O[C@@]12CO[C@@H]1C[C@H](O)[C@]1(C)[C@@H]2[C@H](OC(=O)c2ccccc2)[C@]2(O)C[C@H](OC(=O)[C@H](O)[C@@H](NC(=O)OC(C)(C)C)c3ccccc3)C(C)=C([C@@H](O)[C@@H]1O)C2(C)C`, the Cytotoxicity was 0.26 ng/mL in the assay on A549, 0.4 ng/mL with B16-F10, 0.65 ng/mL in the assay on HT-29 and 2.8 ng/mL with P388. Also, in assay [1], the Ratio came out at 1.31.

As for `CC(=O)O[C@@H]1C2=C(C)[C@@H](OC(=O)[C@H](O)[C@@H](NC(=O)c3ccccc3)c3ccccc3)C[C@@](O)([C@@H](OC(=O)c3ccccc3)[C@@H]3[C@]4(OC(C)=O)CO[C@@H]4C[C@H](O)[C@@]3(C)[C@H]1O)C2(C)C` (stereo in doubt; 14a) [listing 2 of 2 here], the Ratio in assay [1] stood at 0.83.

For the compound `CCN(CC)CCO[C@H]1C[C@H]2OC[C@@]2(OC(C)=O)[C@H]2[C@H](OC(=O)c3ccccc3)[C@]3(O)C[C@H](OC(=O)[C@H](O)[C@@H](NC(=O)c4ccccc4)c4ccccc4)C(C)=C([C@@H](OC(C)=O)[C@H](O)[C@]12C)C3(C)C`, the Cytotoxicity with A549 came out at 400 ng/mL; with B16-F10 it was 110 ng/mL; in the assay on HT-29, 108 ng/mL; in the assay on P388, 310 ng/mL. Also, the Ratio in assay [1] is 2.61.

With `CC(=O)O[C@@H]1C2=C(C)[C@@H](OC(=O)[C@H](O)[C@@H](NC(=O)c3ccccc3)c3ccccc3)C[C@@](O)([C@@H](OC(=O)c3ccccc3)[C@@H]3[C@]4(O)CO[C@@H]4C[C@H](O)[C@@]3(C)[C@H]1O)C2(C)C`, the Cytotoxicity in the assay with A549, in the assay on B16-F10, in the assay with HT-29 and with P388 was more than 1000 ng/mL throughout. Besides, the Ratio in assay [1] is more than 10.

For `CO[C@H]1C[C@H]2OC[C@@]2(OC(C)=O)[C@H]2[C@H](OC(=O)c3ccccc3)[C@]3(O)C[C@H](OC(=O)[C@H](O)[C@@H](NC(=O)OC(C)(C)C)c4ccccc4)C(C)=C([C@@H](OC(C)=O)[C@H](O)[C@]12C)C3(C)C`, the Cytotoxicity in the assay on A549 was found to be 0.27 ng/mL; in the assay with B16-F10, 0.2 ng/mL; in the assay with HT-29, 0.15 ng/mL; in the assay on P388, 0.6 ng/mL. In assay [1], the Ratio was determined as 0.35.

On to `CC(=O)O[C@@H]1C2=C(C)[C@@H](OC(=O)[C@H](O)[C@@H](NC(=O)c3ccccc3)c3ccccc3)C[C@@](O)([C@@H](OC(=O)c3ccccc3)[C@@H]3[C@]4(OC(C)=O)CO[C@@H]4C[C@H](O)[C@@]3(C)[C@H]1O)C2(C)C` (stereo in doubt; 2) [listing 2 of 2 here], for which, in assay [1], the Ratio was 0.75.

On to `CC(=O)O[C@@H]1C2=C(C)[C@@H](OC(=O)[C@H](O)[C@@H](NC(=O)c3ccccc3)c3ccccc3)C[C@@](O)([C@@H](OC(=O)c3ccccc3)[C@@H]3[C@]4(OC(C)=O)CO[C@@H]4C[C@H](OC(C)=O)[C@@]3(C)[C@H]1OC(C)=O)C2(C)C`, for which the Cytotoxicity in the assay with A549 was determined as 15 ng/mL; in the assay with B16-F10, 13 ng/mL; in the assay on HT-29, 3.3 ng/mL; with P388, 22 ng/mL. The Ratio in assay [1] came to 0.91.
